# Source: publication PMC6211275, “Phosphonate inhibitors of West Nile virus NS2B/NS3 protease” (Journal of Enzyme Inhibition and Medicinal Chemistry, 2018)
# Like-named read-outs stand apart in the source and are kept apart here. Marks after values point to notes of the source that are not given here. Peptide text beside a SMILES is read from it. * marks the point of attachment. Cbz = O=C(OCc1ccccc1)*; PhAc = O=C(Cc1ccccc1)*
# Assays:
# [1] = tested on: West Nile virus NS2B/NS3 protease; conditions: cited from earlier work
# Dengue and WNV titres = tested on: Dengue and WNV titres; set-up: method as in earlier work; conditions: cell-based assays of virus replication; ref 15 (Behnam et al.); read-out: EC50, reduction of Dengue and WNV titres; cited from earlier work
# WNV NS2B/NS3 protease = WNV NS2B/NS3 protease (West Nile virus, UniProt P06935); assay: In vitro NS2B/NS3 protease inhibition (fluorescent substrate Pyr-RTKR-AMC, progress curve method); type: biochemical; conditions: for percent of inhibition: inhibitor 100 µM, after 30 min incubation at 37 °C; for k2/Ki: Table 2, peptide phosphonates; for improvement in inhibitory potency after introduction of P2 Arg and P3 Lys: peptidyl derivative vs. simple Cbz-protected parent phosphonate
# Chain of WNV NS2B/NS3 protease (P06935 1502-1680): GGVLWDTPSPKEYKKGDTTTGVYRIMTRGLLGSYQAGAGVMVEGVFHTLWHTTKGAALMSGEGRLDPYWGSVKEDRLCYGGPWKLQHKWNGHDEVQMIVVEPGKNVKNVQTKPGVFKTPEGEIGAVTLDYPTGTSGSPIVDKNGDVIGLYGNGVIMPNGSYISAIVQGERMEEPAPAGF
# Chain of WNV NS2B/NS3 protease (P06935 1419-1466): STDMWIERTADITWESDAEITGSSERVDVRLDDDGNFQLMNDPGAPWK
# Experimental: For the initial screening, Cbz-protected aminophosphonates were assayed in 96 well microplates (Nunc™ F96 MicroWell™ White Polystyrene Plate) in the following protease buffer: 50 mM Tris, 1 mM Chaps, 20% glycerol, pH 8.5. WNV NS2B/NS3 protease (AnaSpec, Liege, Belgium; 20 nM) was pre-incubated with tested inhibitor (100 µM) in the protease buffer at 37 °C for 10 min prior an addition of the fluorescent substrate Pyr-RTKR-AMC (AnaSpec, Liege, Belgium; 20 µM). The progress of the reaction was monitored continuously (λex = 354 nm, λem = 442 nm) at 37 °C on a Spectra Max Gemini XPS spectrofluorometer (Molecular Devices, Sunnyvale, CA) for 30 min. […] In 96 well microplates narrowed concentration of inhibitors and constant substrate concentration (Pyr-RTKR-AMC, C = 20 µM, KM = 59 µM) were prepared. The enzyme solution was added and enzymatic reaction was monitored (Figure S1). Using a model for irreversible inhibition, in which the first order inactivation rate constant kobs is hyperbolic dependent from the inhibitor concentration Ki and k2/Ki values were calculated (equations (1–4) in supplementary material)[29]. Control progress curves in the absence of inhibitor were linear.
# The inhibitory activity of the compounds was determined by the progress curve method. First the data from nonlinear progress curves with time dependent inhibitors were fit to eq.1 to obtain the first-order rate constant (kobs):
# The second-order rate constants (k2/KI) and (KI)app values were calculated using hyperbolic regression according to equation 3: […]
# KI values were calculated according to equation 3: […]
# human cathepsin G = molecular target: T1, human cathepsin G (Homo sapiens, UniProt P08311); assay: Control proteases inhibition assay, cathepsin G; type: biochemical; conditions: inhibitor concentration 25 μM, after 30 min incubation at 37 °C
# T1 construct: purchased Biocentrum, Kraków, Poland
# T1 sequence (P08311 21-255): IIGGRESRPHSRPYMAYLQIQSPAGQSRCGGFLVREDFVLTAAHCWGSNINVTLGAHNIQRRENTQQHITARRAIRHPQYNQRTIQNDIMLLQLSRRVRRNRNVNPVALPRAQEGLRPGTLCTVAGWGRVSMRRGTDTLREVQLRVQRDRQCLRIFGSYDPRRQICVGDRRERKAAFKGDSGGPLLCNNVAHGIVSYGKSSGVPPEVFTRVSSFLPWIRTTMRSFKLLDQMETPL
# Experimental: (§1) Bovine β-trypsin (AppliChem, Łódź, Poland), human cathepsin G (Biocentrum, Kraków, Poland) and Human Airway Trypsin-like Protease (HAT) (R&D Systems, Minneapolis, MN) were used as control proteases to screen the activity of NS2B/NS3 protease inhibitors (36–39) obtained in this study. Inhibitors were assayed in 96-well microplates in the 0.1 M HEPES, 0.5 M NaCl, 0.03%, pH 7.5 Triton X-100 (for bovine β-trypsin and cathepsin G). Bovine β-trypsin (15 nM), human cathepsin G (150 nM) or HAT protease (0.001 µg) was pre-incubated with tested inhibitor (25 µM) in the protease buffer at 37 °C for 10 min prior to the addition of the fluorescent substrate: Cbz-Arg-AFC (synthesised in-house according to the procedure described by Bissell[30]; 50 µM; λex = 400 nm, λem = 505 nm, for bovine β-trypsin); MeO-Suc-Ala-Ala-Pro-Val-AMC (Bachem, Bubendorf, Switzerland; 40 µM, λex = 340 nm, λem = 440 nm, for human cathepsin G) or Phe-Ser Arg-AMC (Bachem, Bubendorf, Switzerland; 40 µM, λex = 340 nm, λem = 440 nm, for HAT protease). The progress of the reactions was monitored continuously at 37 °C on a Spectra Max Gemini XPS spectrofluorometer for 20 min. Control curves in the absence of inhibitor were linear. The rate of the tested protease inhibition was calculated from the linear range of the plot.
# [2] = molecular target: T2, Human Airway Trypsin-like Protease (HAT) (Homo sapiens, UniProt O60235); assay: Control proteases inhibition assay, HAT protease; type: biochemical; conditions: inhibitor concentration 25 μM, after 30 min incubation at 37 °C
# T2 construct: purchased R&D Systems, Minneapolis, MN
# T2 sequence (O60235 1-418): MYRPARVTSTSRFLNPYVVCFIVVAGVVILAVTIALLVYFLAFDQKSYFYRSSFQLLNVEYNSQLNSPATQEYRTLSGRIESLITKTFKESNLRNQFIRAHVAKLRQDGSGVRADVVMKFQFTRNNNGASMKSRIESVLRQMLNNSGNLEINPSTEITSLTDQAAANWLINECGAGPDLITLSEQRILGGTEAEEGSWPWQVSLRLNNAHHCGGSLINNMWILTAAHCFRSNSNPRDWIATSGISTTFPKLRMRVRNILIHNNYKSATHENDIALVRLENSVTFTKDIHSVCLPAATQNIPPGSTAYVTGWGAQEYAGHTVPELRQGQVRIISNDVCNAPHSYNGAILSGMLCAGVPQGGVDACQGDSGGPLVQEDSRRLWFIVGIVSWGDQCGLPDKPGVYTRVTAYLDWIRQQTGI
# Experimental: as §1
# Bovine β-trypsin = molecular target: T3, Bovine β-trypsin (Bos taurus, UniProt P00760); assay: Control proteases inhibition assay, trypsin; type: biochemical; conditions: inhibitor concentration 25 μM, after 30 min incubation at 37 °C
# T3 construct: purchased AppliChem, Łódź, Poland
# T3 sequence (P00760 24-246): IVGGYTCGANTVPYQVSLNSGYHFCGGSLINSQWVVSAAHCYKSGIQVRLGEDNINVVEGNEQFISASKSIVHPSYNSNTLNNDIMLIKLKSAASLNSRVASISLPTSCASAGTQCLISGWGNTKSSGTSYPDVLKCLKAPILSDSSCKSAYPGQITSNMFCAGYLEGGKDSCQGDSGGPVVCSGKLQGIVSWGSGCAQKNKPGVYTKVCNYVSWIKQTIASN
# Experimental: as §1
# [3] = Stability in assay buffer (HPLC analysis); type: physicochemical
# Experimental: Stability in assay buffer. A stock solution of compound (38) (10 mM in acetonitrile) was added to the assay buffer (50 mM Tris, 1 mM Chaps, 20% glycerol, pH 8.5) to make a final concentration of 2 mg/mL and incubated at 37°C. The resulting mixture was subjected to HPLC analysis to determine compound stability using a Discovery® BIO Wide Pore C8 HPLC Column (250 mm × 4.6 mm, 10 μm) with a 1 mL/min flow rate, gradient 0−100% [0.05% TFA in acetonitrile] in [0.05% TFA in water] over a period of 15 min.
# [4] = tripeptide aldehydes, ref 11 (Stoermer et al.)
compound,measurement,setting,value
N=C(N)NCCC[C@@H](C=O)NC(=O)[C@H](CCCCN)NC(=O)[C@H](CCCCN)NC(=O)Cc1ccc(-c2ccccc2)cc1 [Compound 1],Ki,[1]; [4],6 nM
N=C(N)NCCC[C@@H](C=O)NC(=O)[C@H](CCCCN)NC(=O)[C@H](CCCCN)NC(=O)Cc1ccccc1 [Compound 2] (PhAc-Lys-Lys-Arg-aldehyde),Ki,[1]; [4],9 nM
N=C(N)NC1CCC(CNC(=O)[C@H](CCCCN)NC(=O)[C@H](CCCCN)NC(=O)Cc2ccc(Cl)c(Cl)c2)CC1 (some centres unmarked) [Compound 3],Ki,[1]; ref 13 (Hammamy et al.),130 nM
NCCCC[C@H](NC(=O)c1ccc(/C=C2\SC(=O)N(CC3CCCCC3)C2=O)cc1)C(=O)N[C@@H](CCCCN)C(=O)N[C@H](C(N)=O)c1ccccc1 [Compound 4],Ki,[1]; ref 14 (Bastos et al.),750 nM
N=C(N)NCCC[C@H](Nc1nccs1)C(=O)N[C@@H](CCCCN)C(=O)N[C@H](C(N)=O)c1ccc(OCc2ccc(C(F)(F)F)cc2)cc1 [Compound 5],Ki,[1]; ref 15 (Behnam et al.),39 nM
same,EC50,Dengue and WNV titres,15500 nM
N=C(N)SCCCC(NC(=O)OCc1ccccc1)P(=O)(Oc1ccccc1)Oc1ccccc1 (centres unmarked) [Compound 8],percent of inhibition,WNV NS2B/NS3 protease; substrate Pyr-RTKR-AMC 20 µM,22%
"NC(=O)CCC(NC(=O)OCc1ccccc1)P(=O)(Oc1ccccc1)Oc1ccccc1 (centres unmarked) [Compound 11, Cbz-Gln^P(OPh)2]",percent of inhibition,WNV NS2B/NS3 protease; substrate Pyr-RTKR-AMC 20 µM,15%
N#Cc1ccc2cc(C(NC(=O)OCc3ccccc3)P(=O)(Oc3ccccc3)Oc3ccccc3)ccc2c1 (centres unmarked) [Compound 22],percent of inhibition,WNV NS2B/NS3 protease; substrate Pyr-RTKR-AMC 20 µM,2%
N=C(N)c1ccc2cc(C(NC(=O)OCc3ccccc3)P(=O)(Oc3ccccc3)Oc3ccccc3)ccc2c1 (centres unmarked) [Compound 23],inhibition at 100 µM,WNV NS2B/NS3 protease; read-out: percent of inhibition,12%
"O=C(NC(c1ccc(-n2cccn2)cc1)P(=O)(Oc1ccccc1)Oc1ccccc1)OCc1ccccc1 (centres unmarked) [Compound 24, Benzyl ((4-(1H-pyrazol-1-yl)phenyl)(diphenoxyphosphoryl)methyl)carbamate]",percent of inhibition,WNV NS2B/NS3 protease; substrate Pyr-RTKR-AMC 20 µM,5%
O=C(NC(c1ccc(-n2cnc3ccccc32)cc1)P(=O)(Oc1ccccc1)Oc1ccccc1)OCc1ccccc1 (centres unmarked) [Compound 25],percent of inhibition,WNV NS2B/NS3 protease; substrate Pyr-RTKR-AMC 20 µM,4%
CN1CCN(c2ccc(C(NC(=O)OCc3ccccc3)P(=O)(Oc3ccccc3)Oc3ccccc3)cc2)CC1 (centres unmarked) [Compound 26],percent of inhibition,WNV NS2B/NS3 protease; substrate Pyr-RTKR-AMC 20 µM,3%
O=C(NC(c1ccc(N2CCOCC2)cc1)P(=O)(Oc1ccccc1)Oc1ccccc1)OCc1ccccc1 (centres unmarked) [Compound 27],percent of inhibition,WNV NS2B/NS3 protease; substrate Pyr-RTKR-AMC 20 µM,1%
"N=C(N)NCCC[C@H](NC(=O)[C@H](CCCCN)NC(=O)OCc1ccccc1)C(=O)NC(CCCCN)P(=O)(Oc1ccccc1)Oc1ccccc1 (stereo partly drawn) [Compound 36, Cbz-Lys-Arg-Lys^P(OPh)2]",Ki,WNV NS2B/NS3 protease,8000 ± 900 nM
same,k2/Ki,WNV NS2B/NS3 protease; substrate Pyr-RTKR-AMC 20 µM,5 520 M^−1s^−1
same,improvement in inhibitory potency after introduction of P2 Arg and P3 Lys,WNV NS2B/NS3 protease,69 fold
same,"percent of inhibition, CatG",human cathepsin G,2%
same,"percent of inhibition, HAT",[2],2%
same,"percent of inhibition, Trypsin",Bovine β-trypsin,8%^a
"N=C(N)NCCCC(NC(=O)[C@H](CCCNC(=N)N)NC(=O)[C@H](CCCCN)NC(=O)OCc1ccccc1)P(=O)(Oc1ccccc1)Oc1ccccc1 (stereo partly drawn) [Compound 37, Cbz-Lys-Arg-Arg^P(OPh)2]",Ki,WNV NS2B/NS3 protease,3000 ± 300 nM
same,k2/Ki,WNV NS2B/NS3 protease; substrate Pyr-RTKR-AMC 20 µM,10 725 M^−1s^−1
same,improvement in inhibitory potency after introduction of P2 Arg and P3 Lys,WNV NS2B/NS3 protease,69 fold
same,"percent of inhibition, CatG",human cathepsin G,3%
same,"percent of inhibition, HAT",[2],2%
same,"percent of inhibition, Trypsin",Bovine β-trypsin,7%
"N=C(N)NCCC[C@@H](NC(=O)[C@@H](CCCCN)NC(=O)OCc1ccccc1)C(=O)NC(Cc1ccc(NC(=N)N)cc1)P(=O)(Oc1ccccc1)Oc1ccccc1 (stereo partly drawn) [Compound 38, Cbz-Lys-Arg-(4-GuPhe)^P(OPh)2]",Ki,WNV NS2B/NS3 protease,400 ± 30 nM
same,kinact/KI,WNV NS2B/NS3 protease; read-out: k2/Ki,28300 M⁻¹ s⁻¹
same,"percent of inhibition, CatG",human cathepsin G,no significant inhibition
same,inhibition at 25 µM,"human cathepsin G; read-out: percent of inhibition, CatG",7%
same,"percent of inhibition, HAT",[2],no significant inhibition
same,inhibition at 25 µM,"[2]; read-out: percent of inhibition, HAT",5%
same,inhibitor degradation,"[3]; during enzyme inhibition assay time, assay buffer pH 8.5",~ 1%
same,degradation of compound,"[3]; over 6 hours, assay buffer pH 8.5, 37 °C",~ 13%
same,% of initial inhibitor concentration,"[3]; time 0.0 h, assay buffer pH 8.5, 37 °C",100%
same,% of initial inhibitor concentration,"[3]; time 0.5 h, assay buffer pH 8.5, 37 °C","98,93%"
same,% of initial inhibitor concentration,"[3]; time 1.0 h, assay buffer pH 8.5, 37 °C","98,12%"
same,% of initial inhibitor concentration,"[3]; time 1.5 h, assay buffer pH 8.5, 37 °C","96,27%"
same,% of initial inhibitor concentration,"[3]; time 2.0 h, assay buffer pH 8.5, 37 °C","95,19%"
same,% of initial inhibitor concentration,"[3]; time 2.5 h, assay buffer pH 8.5, 37 °C","95,04%"
same,% of initial inhibitor concentration,"[3]; time 3.0 h, assay buffer pH 8.5, 37 °C","93,35%"
same,% of initial inhibitor concentration,"[3]; time 3.5 h, assay buffer pH 8.5, 37 °C","91,90%"
same,% of initial inhibitor concentration,"[3]; time 4.0 h, assay buffer pH 8.5, 37 °C","91,11%"
same,% of initial inhibitor concentration,"[3]; time 4.5 h, assay buffer pH 8.5, 37 °C","88,43%"
same,% of initial inhibitor concentration,"[3]; time 5.0 h, assay buffer pH 8.5, 37 °C","86,99%"
same,% of initial inhibitor concentration,"[3]; time 5.5 h, assay buffer pH 8.5, 37 °C","86,84%"
same,% of initial inhibitor concentration,"[3]; time 6.0 h, assay buffer pH 8.5, 37 °C","86,73%"
same,"percent of inhibition, Trypsin",Bovine β-trypsin,no significant inhibition
same,inhibition at 25 µM,"Bovine β-trypsin; read-out: percent of inhibition, Trypsin",4%
"N=C(N)NCCCC(C=O)NC(=O)C(CCCNC(=N)N)NC(=O)C(CCCCN)NC(=O)OCc1ccccc1 (stereo not drawn) [Compound 40, Cbz-Lys-Arg-Arg-H, reference compound] (Cbz-Lys-Arg-Arg-aldehyde; configuration not given here)",Ki,"WNV NS2B/NS3 protease; Table 2, peptide phosphonates and reference aldehyde, substrate Pyr-RTKR-AMC 20 µM, read-out: Ki",120 ± 20 nM
